The supplement of paper PMC10307832

How the values were obtained:
Assay in all cases: relative viability (nuclei count vs DMSO), 5 days (fraction); higher = more cells survive
KIN001-266 + AZD7762 = compound: CCN1CCC(CC1)N2C=C(N=N2)CNC3=CC4=C(C(=CN=C4C(=C3)Cl)C#N)NC5=CC(=C(C=C5)F)Cl [KIN001-266] + NC(=O)Nc1cc(-c2cccc(F)c2)sc1C(=O)N[C@H]1CCCNC1 [AZD7762] (partner 0.2 µM)
In short: (§1)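 Relative viability equals treated-well nuclei counts divided by vehicle-well nuclei counts. Counts came from 4× images of lung cancer cell lines grown in 1536-well plates for 5 days after pin-tool dosing on the day after seeding. Dosing used one drug alone or a fixed anchor-drug dose plus five library-drug doses (not always all listed) in √10 steps, and values are medians of duplicate plates.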

KIN001-266 + Phenformin = compound: CCN1CCC(CC1)N2C=C(N=N2)CNC3=CC4=C(C(=CN=C4C(=C3)Cl)C#N)NC5=CC(=C(C=C5)F)Cl [KIN001-266] + N=C(N)NC(=N)NCCc1ccccc1 [Phenformin] (partner 250 µM)
In short: as §1

KIN001-266 + Alpelisib = compound: CCN1CCC(CC1)N2C=C(N=N2)CNC3=CC4=C(C(=CN=C4C(=C3)Cl)C#N)NC5=CC(=C(C=C5)F)Cl [KIN001-266] + Cc1nc(NC(=O)N2CCC[C@H]2C(N)=O)sc1-c1ccnc(C(C)(C)C(F)(F)F)c1 [Alpelisib] (partner 2 µM)
In short: as §1

KIN001-266 + Pictilisib = compound: CCN1CCC(CC1)N2C=C(N=N2)CNC3=CC4=C(C(=CN=C4C(=C3)Cl)C#N)NC5=CC(=C(C=C5)F)Cl [KIN001-266] + CS(=O)(=O)N1CCN(Cc2cc3nc(-c4cccc5[nH]ncc45)nc(N4CCOCC4)c3s2)CC1 [Pictilisib] (partner 1 µM)
In short: as §1

Cell Line	relative viability (KIN001-266 + AZD7762; first compound 0.08 µM)	relative viability (KIN001-266 + AZD7762; first compound 0.253 µM)	relative viability (KIN001-266 + AZD7762; first compound 0.8 µM)	relative viability (KIN001-266 + AZD7762; first compound 2.53 µM)	relative viability (KIN001-266 + AZD7762; first compound 8 µM)	relative viability (KIN001-266 + Phenformin; first compound 0.08 µM)	relative viability (KIN001-266 + Phenformin; first compound 0.253 µM)	relative viability (KIN001-266 + Phenformin; first compound 0.8 µM)	relative viability (KIN001-266 + Phenformin; first compound 2.53 µM)	relative viability (KIN001-266 + Phenformin; first compound 8 µM)	relative viability (KIN001-266 + Alpelisib; first compound 0.08 µM)	relative viability (KIN001-266 + Alpelisib; first compound 0.253 µM)	relative viability (KIN001-266 + Alpelisib; first compound 0.8 µM)	relative viability (KIN001-266 + Alpelisib; first compound 2.53 µM)	relative viability (KIN001-266 + Alpelisib; first compound 8 µM)	relative viability (KIN001-266 + Pictilisib; first compound 0.08 µM)	relative viability (KIN001-266 + Pictilisib; first compound 0.253 µM)	relative viability (KIN001-266 + Pictilisib; first compound 0.8 µM)	relative viability (KIN001-266 + Pictilisib; first compound 2.53 µM)	relative viability (KIN001-266 + Pictilisib; first compound 8 µM)
HCC-366	0.552	0.361	0.175	0.26	0.175	0.657	0.644	0.596	0.567	0.509	0.495	0.492	0.583	0.374	0.364	0.132	0.114	0.107	0.154	0.156
HCC-827	0.28	0.224	0.131	0.215	0.196	0.439	0.404	0.189	0.318	0.286	0.953	1.04	–	0.948	0.648	0.855	1.09	–	0.785	0.837
HOP-62	0.583	0.671	1.03	0.729	0.447	0.683	0.694	0.688	0.734	0.629	1.09	1.21	0.967	1.02	0.84	0.592	0.813	0.728	0.372	0.506
IA-LM	–	–	–	–	–	–	–	–	–	–	1.09	0.652	0.754	0.635	0.755	0.336	0.364	0.274	0.348	0.317
LC-2-ad	0.8	0.867	0.777	0.863	0.636	0.622	0.647	0.629	0.637	0.576	0.897	0.776	0.918	0.783	0.869	0.582	0.336	0.466	0.317	0.543
LCLC-97TM1	0.339	–	0.281	–	0.212	0.414	0.442	0.413	0.41	0.407	0.268	0.217	0.236	0.222	0.236	0.198	0.264	0.192	0.16	0.215
NCI-H520	–	–	–	–	–	0.793	0.633	0.706	0.376	0.58	0.817	0.929	1.08	0.646	0.801	0.311	0.242	0.289	0.237	0.286
NCI-H661	–	–	–	–	–	0.297	0.278	0.284	0.263	0.258	0.95	0.753	0.721	0.557	0.591	0.43	0.412	0.433	0.363	0.568
NCI-H1299	–	–	–	–	–	–	–	–	–	–	1.04	1.05	0.548	0.975	1.01	0.98	0.754	0.893	0.75	0.424
NCI-H1563	–	–	–	–	–	0.663	0.694	0.669	0.583	0.62	0.996	0.904	0.92	0.906	0.897	0.662	0.636	0.636	0.656	0.677
NCI-H1648	0.721	0.713	0.518	0.572	0.669	–	–	–	–	–	–	–	–	–	–	–	–	–	–	–
NCI-H1650	–	–	–	–	–	0.479	0.448	0.326	0.261	0.305	–	–	–	–	–	0.618	0.621	0.554	0.524	0.479
NCI-H1703	–	–	–	–	0.112	–	–	–	–	–	0.419	0.307	0.31	0.289	0.325	0.287	0.23	0.234	0.211	0.223
NCI-H2009	–	–	–	–	–	0.455	0.432	0.441	0.319	0.262	1.21	1.17	1.19	1.03	0.983	0.852	0.935	1.02	0.669	0.48
NCI-H2023	–	–	–	–	–	0.378	0.391	0.401	0.304	0.28	0.672	0.64	0.588	0.598	0.618	0.242	0.293	0.267	0.259	0.232
NCI-H2228	–	–	–	–	–	0.392	0.282	0.322	0.296	0.281	0.757	0.95	0.771	0.549	0.622	0.343	0.312	0.425	0.276	0.432
NCI-H2342	0.559	0.492	0.451	0.431	0.545	0.638	0.572	0.537	0.531	0.642	–	–	–	–	–	–	–	–	–	–
SK-LU-1	–	–	–	–	–	0.561	0.47	0.526	0.439	0.394	1.24	1.07	1.14	0.927	0.582	0.562	0.546	0.637	0.467	0.434
SK-MES-1	–	–	–	–	–	0.648	0.695	0.693	0.519	0.459	0.943	0.813	0.845	0.872	0.76	0.304	0.351	0.37	0.408	0.316
SW 900	0.639	0.601	0.527	0.522	0.327	0.617	0.564	0.537	0.564	0.357	–	–	–	–	–	–	–	–	–	–
SW 1573	–	–	–	–	–	0.347	0.425	0.334	0.262	0.165	0.789	0.775	0.709	0.764	0.693	0.523	0.448	0.502	0.474	0.39
UMC-11	–	–	–	–	–	0.336	0.381	0.333	0.316	0.251	0.927	0.931	1.11	0.952	0.604	0.808	0.841	0.827	0.5	0.677
